Data set [1] concerns Enterovirus A71. Briefly: Antiviral activity against Enterovirus A71 SK-EV006 measured after 3 to 4 days by cell based assay. The format is functional, organism-based. Conditions: Enterovirus A.
The subject of data set [2] is Enterovirus A71. As to the kind of experiment: Antiviral activity against Enterovirus A71 Shenzhen/120F1/09 infected in human RD cells assessed as […] measured after 72 hrs post-infection by CCK-8 assay. The format is functional, organism-based. As to conditions: Enterovirus A, Shenzhen/120F1/09, RD.
Data set [3] in a line: Stability in CD-1 mouse plasma assessed as parent compound remaining upto 120 mins by LC-MS analysis. The format is ADME, cell-free. Conditions: read-out: Stabilty.

SMILES strings stand for the structures.

In the data set with Enterovirus A71 [1], `Cc1cc(C(=O)N[C@@H](Cc2ccc(F)cc2)C(=O)N[C@H](C=O)C[C@@H]2CCCNC2=O)no1` came in with an EC50 of 108 nM.

For `Cc1cc(C(=O)N[C@H](C(=O)NC2C(=O)N[C@@H](CC3CCNC3=O)/C=C/C(=O)OC/C=C/CCOC2c2ccccc2)C(C)C)no1` (stereo partly drawn), in the data set with Enterovirus A71 [2], the EC50 was 4500 nM. Besides, the remaining at 2 h in data set [3] was determined as 5.6%.

The values above are taken from ChEMBL document CHEMBL4725246, “Design, synthesis, and evaluation of a novel macrocyclic anti-EV71 agent” (Bioorg Med Chem, 2020).
